Experimental data from ChEMBL document CHEMBL3885861, “Open TG-GATES”.

Species on record: Rattus norvegicus
Assay: Open TG-GATES - Regimen: Single
Type: toxicity, organism-based, Sprague-Dawley
Design: regimen Single, gender Male, age 6 weeks
Conditions: in vivo, po, route gavage; for Bas / Eos / Fbg / Ht / Lym / MCHC / MCV / Mono / Neu / PT / Plat / RBC / Ret / WBC / APTT / Hb: tissue Blood; for KIDNEY_L / KIDNEY_R / KIDNEY_TOTAL: tissue Kidney; for LIVER: tissue Liver; for ALP / ALT / AST / BUN / CRE / Ca / Cl / DBIL / GLC / IP / LDH / Na / PL / RALB / TBIL / TC / TG / TP / gamma-GTP: tissue Plasma
[1] = 120 mg/kg, 3 h, dose level Middle
[2] = 120 mg/kg, 6 h, dose level Middle
[3] = 120 mg/kg, 9 h, dose level Middle
[4] = 120 mg/kg, 24 h, dose level Middle
[5] = 400 mg/kg, 3 h, dose level High
[6] = 400 mg/kg, 6 h, dose level High
[7] = 400 mg/kg, 9 h, dose level High
[8] = 400 mg/kg, 24 h, dose level High

## CC(C)N(CCC(C(N)=O)(c1ccccc1)c1ccccn1)C(C)C (stereo not drawn) [DISOPYRAMIDE]
[1]
  Bas: 0%
  Eos: 0.8%
  Fbg: 307.4 mg/dL
  Ht: 41.8%
  Lym: 77.4%
  MCHC: 32.3%
  MCV: 62.8 fL
  Mono: 2.2%
  Neu: 19%
  PT: 15.5 s
  Plat: 121.9 x10_4/uL
  RBC: 665.8 x10_4/ul
  Ret: 7.4%
  WBC: 63.5 x10_2/uL
  KIDNEY_L: 0.9 g
  KIDNEY_R: 1 g
  KIDNEY_TOTAL: 1.9 g
  LIVER: 9.5 g
  ALP: 1368.8 IU/L
  ALT: 51.2 IU/L
  AST: 89.2 IU/L
  BUN: 10.6 mg/dL
  CRE: 0.2 mg/dL
  Ca: 10.4 mg/dL
  Cl: 106 meq/L
  DBIL: 0.002 mg/dL
  GLC: 161 mg/dL
  IP: 8.5 mg/dL
  LDH: 202.4 IU/L
  Na: 141.6 meq/L
  PL: 124 mg/dL
  RALB: 3.1 g/dL
  TBIL: 0.002 mg/dL
  TC: 70.6 mg/dL
  TG: 47 mg/dL
  TP: 5.6 g/dL
  gamma-GTP: 1 IU/L
[2]
  TERMINAL_BW: 209.6 g
  APTT: 22.7 s
  Bas: 0%
  Eos: 0.8%
  Fbg: 320.6 mg/dL
  Hb: 12.9 g/dL
  Ht: 40.3%
  Lym: 72.2%
  MCHC: 31.9%
  MCV: 63.4 fL
  Mono: 2.6%
  Neu: 23.4%
  PT: 15.5 s
  Plat: 123.1 x10_4/uL
  RBC: 635.2 x10_4/ul
  Ret: 7.7%
  WBC: 86 x10_2/uL
  KIDNEY_L: 0.9 g
  KIDNEY_R: 1 g
  KIDNEY_TOTAL: 1.9 g
  LIVER: 9.2 g
  ALP: 1458 IU/L
  ALT: 41.2 IU/L
  AST: 72.6 IU/L
  BUN: 11.6 mg/dL
  CRE: 0.2 mg/dL
  Ca: 10.7 mg/dL
  Cl: 106 meq/L
  DBIL: 0.002 mg/dL
  GLC: 159.2 mg/dL
  IP: 9.1 mg/dL
  LDH: 198.6 IU/L
  Na: 139.4 meq/L
  PL: 142 mg/dL
  RALB: 3 g/dL
  TBIL: 0.002 mg/dL
  TC: 80.8 mg/dL
  TG: 82.2 mg/dL
  TP: 5.6 g/dL
  gamma-GTP: 1.4 IU/L
[3]
  TERMINAL_BW: 199.9 g
  APTT: 21.7 s
  Bas: 0%
  Eos: 0.8%
  Fbg: 330 mg/dL
  Ht: 41.9%
  Lym: 77.2%
  MCHC: 32.4%
  MCV: 64.1 fL
  Mono: 1.8%
  Neu: 19.8%
  PT: 15.7 s
  Plat: 117.5 x10_4/uL
  RBC: 653.4 x10_4/ul
  Ret: 7.3%
  WBC: 61.1 x10_2/uL
  KIDNEY_L: 0.9 g
  KIDNEY_R: 1 g
  KIDNEY_TOTAL: 1.9 g
  LIVER: 8.3 g
  ALP: 1309 IU/L
  ALT: 35.6 IU/L
  AST: 67.6 IU/L
  BUN: 13.6 mg/dL
  CRE: 0.2 mg/dL
  Ca: 10.7 mg/dL
  Cl: 107.6 meq/L
  DBIL: 0 mg/dL
  GLC: 149.6 mg/dL
  IP: 8.9 mg/dL
  LDH: 166 IU/L
  Na: 140.8 meq/L
  PL: 121 mg/dL
  RALB: 3.1 g/dL
  TBIL: 0.006 mg/dL
  TC: 63.2 mg/dL
  TG: 74 mg/dL
  TP: 5.6 g/dL
  gamma-GTP: 1.2 IU/L
[4]
  TERMINAL_BW: 220.9 g
  APTT: 21 s
  Bas: 0%
  Eos: 1%
  Fbg: 319 mg/dL
  Ht: 40.2%
  Lym: 80.8%
  MCHC: 32.7%
  MCV: 64.1 fL
  Mono: 1.8%
  Neu: 15.6%
  PT: 15.8 s
  Plat: 119.1 x10_4/uL
  RBC: 627.6 x10_4/ul
  Ret: 7.3%
  WBC: 89.5 x10_2/uL
  KIDNEY_L: 1 g
  KIDNEY_R: 1 g
  KIDNEY_TOTAL: 2 g
  LIVER: 11.2 g
  ALP: 1568 IU/L
  ALT: 53.6 IU/L
  AST: 76.6 IU/L
  BUN: 14.6 mg/dL
  CRE: 0.2 mg/dL
  Ca: 10.9 mg/dL
  Cl: 105.6 meq/L
  DBIL: 0 mg/dL
  IP: 8.9 mg/dL
  LDH: 160 IU/L
  Na: 143.4 meq/L
  PL: 157 mg/dL
  RALB: 3 g/dL
  TBIL: 0 mg/dL
  TC: 82.2 mg/dL
  TG: 118.2 mg/dL
  TP: 5.5 g/dL
  gamma-GTP: 1.6 IU/L
[5]
  TERMINAL_BW: 210.5 g
  APTT: 22.6 s
  Bas: 0%
  Eos: 1%
  Fbg: 327.6 mg/dL
  Ht: 41.8%
  Lym: 74.6%
  MCHC: 32.1%
  MCV: 62.7 fL
  Mono: 2.2%
  Neu: 22%
  PT: 15.5 s
  Plat: 127.1 x10_4/uL
  RBC: 667.8 x10_4/ul
  Ret: 8%
  WBC: 55.8 x10_2/uL
  KIDNEY_L: 1 g
  KIDNEY_R: 1 g
  KIDNEY_TOTAL: 1.9 g
  LIVER: 9.8 g
  ALT: 47.4 IU/L
  AST: 85.2 IU/L
  BUN: 12.2 mg/dL
  CRE: 0.1 mg/dL
  Ca: 10.2 mg/dL
  Cl: 106.2 meq/L
  DBIL: 0.002 mg/dL
  GLC: 129.8 mg/dL
  IP: 8.9 mg/dL
  LDH: 264.8 IU/L
  Na: 142.8 meq/L
  PL: 126.6 mg/dL
  RALB: 3 g/dL
  TBIL: 0 mg/dL
  TC: 74.2 mg/dL
  TG: 47.8 mg/dL
  TP: 5.6 g/dL
  gamma-GTP: 1 IU/L
[6]
  TERMINAL_BW: 207.1 g
  APTT: 22.8 s
  Bas: 0%
  Eos: 0.4%
  Fbg: 326 mg/dL
  Ht: 42.8%
  Lym: 73.2%
  MCHC: 31.8%
  MCV: 62.5 fL
  Mono: 2.6%
  Neu: 23.2%
  PT: 15.4 s
  Plat: 122.6 x10_4/uL
  RBC: 685.8 x10_4/ul
  Ret: 7.5%
  WBC: 67.9 x10_2/uL
  KIDNEY_L: 1 g
  KIDNEY_R: 1 g
  KIDNEY_TOTAL: 2 g
  LIVER: 9.2 g
  ALP: 1240.8 IU/L
  ALT: 38.8 IU/L
  AST: 74 IU/L
  BUN: 12.2 mg/dL
  CRE: 0.1 mg/dL
  Ca: 10.4 mg/dL
  Cl: 105.8 meq/L
  DBIL: 0.006 mg/dL
  GLC: 157.2 mg/dL
  IP: 8.7 mg/dL
  LDH: 237.8 IU/L
  Na: 140.6 meq/L
  PL: 132.2 mg/dL
  RALB: 3 g/dL
  TBIL: 0.006 mg/dL
  TC: 75.4 mg/dL
  TG: 43.2 mg/dL
  TP: 5.6 g/dL
  gamma-GTP: 1.6 IU/L
[7]
  TERMINAL_BW: 208.7 g
  APTT: 24 s
  Bas: 0%
  Eos: 0.4%
  Fbg: 326 mg/dL
  Ht: 42.6%
  Lym: 71.8%
  MCHC: 31.9%
  MCV: 62.9 fL
  Mono: 1.8%
  Neu: 25.4%
  PT: 15.7 s
  Plat: 120.6 x10_4/uL
  RBC: 677.6 x10_4/ul
  Ret: 7.7%
  WBC: 64.5 x10_2/uL
  KIDNEY_L: 1 g
  KIDNEY_R: 1 g
  KIDNEY_TOTAL: 2 g
  LIVER: 9 g
  ALP: 1238 IU/L
  ALT: 41 IU/L
  AST: 79 IU/L
  BUN: 14 mg/dL
  CRE: 0.1 mg/dL
  Ca: 10.6 mg/dL
  Cl: 106 meq/L
  DBIL: 0 mg/dL
  GLC: 145.6 mg/dL
  IP: 8.4 mg/dL
  LDH: 217.4 IU/L
  Na: 142 meq/L
  PL: 130.4 mg/dL
  RALB: 3.1 g/dL
  TBIL: 0 mg/dL
  TC: 70.8 mg/dL
  TG: 63.4 mg/dL
  TP: 5.8 g/dL
  gamma-GTP: 1.4 IU/L
[8]
  TERMINAL_BW: 215.7 g
  APTT: 23.1 s
  Bas: 0%
  Eos: 0.8%
  Fbg: 289.6 mg/dL
  Hb: 13 g/dL
  Ht: 40.3%
  Lym: 83%
  MCHC: 32.2%
  MCV: 63.1 fL
  Mono: 1.6%
  PT: 16.1 s
  Plat: 118.5 x10_4/uL
  RBC: 639.8 x10_4/ul
  Ret: 6.5%
  WBC: 82.6 x10_2/uL
  KIDNEY_L: 1 g
  KIDNEY_R: 1 g
  KIDNEY_TOTAL: 1.9 g
  LIVER: 8.8 g
  ALP: 1524 IU/L
  ALT: 48.2 IU/L
  AST: 78.6 IU/L
  BUN: 16 mg/dL
  CRE: 0.2 mg/dL
  Ca: 10.4 mg/dL
  Cl: 106 meq/L
  DBIL: 0 mg/dL
  GLC: 153.2 mg/dL
  IP: 8.8 mg/dL
  LDH: 215.8 IU/L
  PL: 133.2 mg/dL
  RALB: 2.8 g/dL
  TBIL: 0 mg/dL
  TC: 75 mg/dL
  TG: 58.2 mg/dL
  TP: 5.4 g/dL
  gamma-GTP: 2 IU/L
